We go through two compounds from patent US5281717A, “Epoxysuccinamic acid derivatives” (Taisho Pharmaceutical Co., Ltd., priority 1990, dated 1994).

Read-outs that look alike come from different tables or passages of the source. Where only a bound is given, the exact number is not on record here.

Common to all, as to format: biochemical
The target in one assay is T1, papain (Carica papaya, UniProt P00784).
T1 construct: purchased Sigma Chemical Co
T1 sequence (P00784 134-345): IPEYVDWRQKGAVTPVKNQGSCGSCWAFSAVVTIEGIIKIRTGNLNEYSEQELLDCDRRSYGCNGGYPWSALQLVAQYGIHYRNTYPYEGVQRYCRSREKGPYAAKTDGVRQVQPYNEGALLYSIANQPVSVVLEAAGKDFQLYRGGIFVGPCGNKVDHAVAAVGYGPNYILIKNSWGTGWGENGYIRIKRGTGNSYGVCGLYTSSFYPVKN
Kind of assay: Inhibitory Activity Against Papain. The protocol:
(§1) The inhibitory activities against papain, CANP and cathepsin B were measured according to the following methods, and results are shown in Table 1.
The measurement was carried out according to the method of A. J. Barrett et al [Biochem. J., vol. 201, p. 189 (1982)].
To each of 0.95 ml of the reaction solutions containing 2.5 mM 2-mercaptoethanol, 1 mM disodium ethylenediaminetetraacetate, 0.1 M sodium potassium phosphate buffer (pH 6.8), 0.1% Brij-35 (produced by Nacalai Tesque Inc.), 1% dimethyl sulfoxide and various concentrations of the test drug was added 25 μl of a papain solution (produced by Sigma Chemical Co.), and the mixture was preincubated at 40° C. for 3 minutes, after which 25 μl of 200 μM benzyloxycarbonyl-L-phenylalanyl-L-arginine 4-methylcoumaryl-7-amide (produced by Peptide Institute Inc.) was added for starting the reaction After incubation at 40° C. for 10 minutes, the reaction was stopped by addition of 1 ml of 100 mM sodium acetate buffer solution (pH 4.3) containing 100 mM sodium chloroacetate. The fluorescence of the liberated 7-amino-4-methylcoumarine was determined using a Shimazu fluorometer RF-5000 with excitation at 380 nm and emission measured at 440 nm. […]

For the next assay, the target named is T2, μ CANP (Calpain I) (Homo sapiens, UniProt P07384).
T2 construct: purchased Nacalai Tesque Inc
T2 sequence (P07384 2-714 limits assumed): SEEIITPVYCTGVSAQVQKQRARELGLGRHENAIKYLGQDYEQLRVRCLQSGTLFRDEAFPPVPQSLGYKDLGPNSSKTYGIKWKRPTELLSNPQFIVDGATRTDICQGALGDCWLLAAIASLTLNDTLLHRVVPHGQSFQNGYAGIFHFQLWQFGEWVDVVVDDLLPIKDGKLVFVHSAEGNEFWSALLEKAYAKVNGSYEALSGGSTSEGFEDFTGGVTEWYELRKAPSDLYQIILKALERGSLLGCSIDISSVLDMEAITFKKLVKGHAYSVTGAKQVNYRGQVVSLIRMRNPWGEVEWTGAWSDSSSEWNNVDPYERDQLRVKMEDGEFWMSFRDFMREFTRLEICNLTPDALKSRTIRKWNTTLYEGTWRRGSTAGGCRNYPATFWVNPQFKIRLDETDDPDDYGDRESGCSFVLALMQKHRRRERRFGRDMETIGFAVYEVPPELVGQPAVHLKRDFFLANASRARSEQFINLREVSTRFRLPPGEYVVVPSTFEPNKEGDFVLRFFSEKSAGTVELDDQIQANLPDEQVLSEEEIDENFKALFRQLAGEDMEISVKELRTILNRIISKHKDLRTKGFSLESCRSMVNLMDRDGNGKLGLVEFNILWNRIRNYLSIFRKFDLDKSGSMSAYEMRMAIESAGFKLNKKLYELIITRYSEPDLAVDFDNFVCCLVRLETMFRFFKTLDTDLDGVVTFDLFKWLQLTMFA
T2 sequence (P04632 1-268 partner): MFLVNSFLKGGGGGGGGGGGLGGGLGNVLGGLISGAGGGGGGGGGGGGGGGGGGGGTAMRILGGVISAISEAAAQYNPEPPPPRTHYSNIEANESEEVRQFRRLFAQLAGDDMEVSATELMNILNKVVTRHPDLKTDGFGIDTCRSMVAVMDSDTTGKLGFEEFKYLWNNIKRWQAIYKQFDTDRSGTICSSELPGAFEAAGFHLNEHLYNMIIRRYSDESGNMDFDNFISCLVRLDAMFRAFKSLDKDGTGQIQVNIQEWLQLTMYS
Kind of assay: Inhibitory Activity Against CANP. As to conditions: pH 7.5, 30° C., preincubated 5 minutes, incubation 20 minutes, alkali-denatured casein. The method, then: as §1
The measurement was carried out according to the method of S. Ishiura et al (J. Biochem., vol. 84, p. 225 (1978)].
Each of 0.45 ml of the reaction solutions containing 25 mM 2-mercaptoethanol, 5 mM calcium chloride, 0.1 M sodium glycerophosphate-HCl buffer (pH 7.5), 0.24% alkali-denatured casein, 1% dimethylsulfoxide and various concentrations of the test drug was preincubated accurately at 30° C. for 5 minutes, and 50 μl of a solution containing 5 μg of μ CANP (Calpain I, produced by Nacalai Tesque Inc.) was added for starting the reaction. After exact incubation at 30° C. for 20 minutes, the reaction was stopped by addition of 0.5 ml of 10% trichloroacetic acid. After being allowed to stand at room temperature for 60 minutes, the mixture was centrifuged at 3000 × g for 5 minutes, and the absorbance at 280 nm of the supernatant was determined. The remaining activity was obtained by reducing the blank value which was obtained in a similar manner to the above but adding 10% trichloroacetic acid prior to addition of μ CANP from the above value. […]

The target in the next assay is T3, cathepsin B (Homo sapiens, UniProt P07858).
T3 construct: purchased Sigma Chemical Co
Description: Inhibitory Activity against Cathepsin B. The settings on record: pH 6.0, 40° C., preincubated 3 minutes, incubation 10 minutes, substrate benzyloxycarbonyl-L-phenylalanyl-L-arginine 4-methylcoumaryl-7-amide.

Description for cathepsin B: To each of 0.95 ml of the reaction solutions containing 2.5 mM 2-mercaptoethanol, 1 mM disodium ethylenediaminetetraacetate, 0.1 M sodium potassium phosphate buffer (pH 6.0), 0.1% Brij-35 (produced by Nacalai Tesque Inc.), 1% dimethyl sulfoxide and various concentrations of the test drug was added 25 μl of 200 nM cathepsin B solution (produced by Sigma Chemical Co.), and the mixture was preincubated at 40° C. for 3 minutes, after which 25 μl of 200 μM benzyloxycarbonyl-L-phenylalanyl-L-arginine 4-methylcoumaryl-7-amide (produced by Peptide Institute Inc.) was added for starting the reaction After incubation at 40° C. for 10 minutes, the reaction was stopped by addition of 1 ml of 100 mM sodium acetate buffer (pH 4.3) containing 100 nM sodium chloroacetate. The fluorescence of the liberated 7-amino-4-methyl-coumarine was determined using a Shimazu fluorometer RP-5000 with excitation at 380 nm and emission measured at 440 nm.

A word on the IC50: it is the midpoint of a concentration-inhibition curve. As to `CCCNC(=O)[C@H]1O[C@@H]1C(=O)N[C@H](C(=O)N1CCC[C@H]1C(=O)O)[C@@H](C)CC` [Compound 1d, N-(L-3-trans-n-propylcarbamoyloxirane-2-carbonyl)-L-isoleucyl-L-proline], the IC50 at papain (pH 6.8, 40° C., preincubated 3 minutes, incubation 10 minutes, substrate benzyloxycarbonyl-L-phenylalanyl-L-arginine 4-methylcoumaryl-7-amide, read-out: Inhibitory Activity Value [IC50 (nM)] Papain) was 57400 nM; at μ CANP (Calpain I), greater than 200000 nM.

Take `CCCCCNC(=O)[C@H]1O[C@@H]1C(=O)N[C@H](C(=O)N1CCC[C@H]1C(=O)O)[C@@H](C)CC` [Compound 8d]: the values for the IC50 against papain, against μ CANP (Calpain I) and at cathepsin B were 26000 nM, greater than 200000 nM and 32 nM, respectively.
